For one assay, the target named is T1, ERα (Homo sapiens, UniProt P03372).
T1 sequence (P03372 1-595): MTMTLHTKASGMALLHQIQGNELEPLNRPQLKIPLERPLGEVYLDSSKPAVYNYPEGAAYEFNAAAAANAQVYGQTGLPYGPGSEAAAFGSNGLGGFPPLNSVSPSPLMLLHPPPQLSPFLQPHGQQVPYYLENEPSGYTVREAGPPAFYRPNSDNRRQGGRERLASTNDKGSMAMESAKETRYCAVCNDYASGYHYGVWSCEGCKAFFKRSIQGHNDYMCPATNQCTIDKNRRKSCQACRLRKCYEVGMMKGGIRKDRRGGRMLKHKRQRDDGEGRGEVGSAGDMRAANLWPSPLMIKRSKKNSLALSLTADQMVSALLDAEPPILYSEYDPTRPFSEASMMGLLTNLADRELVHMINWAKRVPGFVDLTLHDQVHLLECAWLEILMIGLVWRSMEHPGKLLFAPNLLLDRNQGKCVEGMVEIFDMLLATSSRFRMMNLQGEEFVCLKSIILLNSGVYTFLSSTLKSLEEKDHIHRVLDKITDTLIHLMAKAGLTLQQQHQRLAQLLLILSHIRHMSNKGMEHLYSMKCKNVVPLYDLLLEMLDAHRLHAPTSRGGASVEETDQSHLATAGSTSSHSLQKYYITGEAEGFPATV
In words: ERE luciferase reporter gene assay in T47D-KBluc cells (target engagement). The class given is cell-based. Details: T47D human breast cancer cells stably transfected with estrogen responsive element/promoter/luciferase reporter gene; host or cells: T47D-KBluc cells. As to conditions: 10% FBS, 24 hours, Table 1 cereblon centric PROTACs, read-out: ER-α Luciferase IC50. A digest of the protocol:
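T47D-KBluc breast cancer cells, which carry a stable ERE-luciferase reporter, were grown in RPMI with 10% FBS (about 10 pM estrogen) and exposed to PROTACs for 24 h. The 12-point, 3-fold series ran from 300 nM to 2 pM. Luciferase was read after lysis, and IC50 was fitted from duplicates.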
(In a reporter assay the amount or activity of a reporter protein is the signal.)
In the case of `O=C1CCC(N2Cc3cc(CCCOC4CCN(CCOc5ccc(Oc6c(-c7ccc(Br)cc7)sc7cc(O)ccc67)cc5)CC4)ccc3C2=O)C(=O)N1` (centres unmarked) [Compound 73], the IC50 is 1.3 nM.
The same measure, in the same setting: the figure for `O=C1CC[C@@H](N2Cc3c(OCc4ccc(CN5CCN(CCOc6ccc(Oc7c(-c8ccc(Br)cc8)sc8cc(O)ccc78)cc6)CC5)nc4)cccc3C2=O)C(=O)N1` [Compound 9] is 2.9 nM.
On the same count and under the same terms, the figure for `O=C1CCC(N2C(=O)c3ccc(NCCCOCCCOCCCOc4ccc(Oc5c(-c6ccc(Br)cc6)sc6cc(O)ccc56)cc4)cc3C2=O)C(=O)N1` (centres unmarked) [Compound 84] is 30.9 nM.
The same measure, in the same setting: the same measure for `O=C1CCC(N2C(=O)c3ccc(N4CCN(CCOc5ccc(Oc6c(-c7ccc(Br)cc7)sc7cc(O)ccc67)cc5)CC4)cc3C2=O)C(=O)N1` (centres unmarked) [Compound 56]: 10.6 nM; for `O=C1CCC(N2Cc3cc(NCCCC4CCN(CCOc5ccc(Oc6c(-c7ccc(Br)cc7)sc7cc(O)ccc67)cc5)CC4)ccc3C2=O)C(=O)N1` (centres unmarked) [Compound 64]: 2.9 nM; for `O=C1CCC(N2C(=O)c3ccc(OCCCOCCOCCOc4ccc(Oc5c(-c6ccc(Br)cc6)sc6cc(O)ccc56)cc4)cc3C2=O)C(=O)N1` (centres unmarked) [Compound 79]: 27.8 nM.
On to `O=C1CC[C@H](N2Cc3cc(OCC(=O)N4CCN(CCOc5ccc(Oc6c(-c7ccc(Br)cc7)sc7cc(O)ccc67)cc5)CC4)ccc3C2=O)C(=O)N1` [Compound 8], for which the IC50 was determined as 1.9 nM.
Same read-out and setting: the figure for `O=C1CCC(N2Cc3cc(OCCCOCCCOCCCCOc4ccc(Oc5c(-c6ccc(Br)cc6)sc6cc(O)ccc56)cc4)ccc3C2=O)C(=O)N1` (centres unmarked) [Compound 48] is 8.3 nM.

Staying with this assay, now noted: 10% FBS, 24 hours, Table 2 VHL centric PROTACs, read-out: IC50.
`Cc1ncsc1-c1ccc([C@H](C)NC(=O)[C@@H]2C[C@@H](O)CN2C(=O)[C@@H](NC(=O)COCCCOCCCOc2ccc(Oc3c(-c4ccc(F)cc4)sc4cc(O)ccc34)cc2)C(C)(C)C)cc1` [Compound 112, (2S,4R)-1-((S)-2-(2-(3-(3-(4-(2-(4-fluorophenyl)-6-hydroxybenzo[b]thiophen-3-yloxy)phenoxy)propoxy)propoxy)acetamido)-3,3-dimethylbutanoyl)-4-hydroxy-N—((S)-1-(4-(4-methylthiazol-5-yl)phenyl)ethyl)pyrrolidine-2-carboxamide]: the IC50 is 15.8 nM.
The same measure, in the same setting: the figure for `Cc1ncsc1-c1ccc(CNC(=O)[C@@H]2C[C@@H](O)CN2C(=O)[C@@H](NC(=O)CCCN2CC3CN(CCOc4ccc(Oc5c(-c6ccc(F)cc6)sc6cc(O)ccc56)cc4)CC3C2)C(C)(C)C)cc1` (some centres unmarked) [Compound 122] is > 100 nM; for `CC(C)(C)[C@H](NC(=O)Cc1ccc(-c2ccn(CCOc3ccc(Oc4c(-c5ccc(F)cc5)sc5cc(O)ccc45)cc3)n2)cc1)C(=O)N1C[C@H](O)C[C@H]1C(=O)NCc1ccc(C#N)cc1` [Compound 145] it is 97 nM; for `Cc1ncsc1-c1ccc(CNC(=O)[C@@H]2C[C@@H](O)CN2C(=O)[C@@H](NC(=O)CCCC(=O)N2CCN(CCOc3ccc(Oc4c(-c5ccc(F)cc5)sc5cc(O)ccc45)cc3)[C@H](C)C2)C(C)(C)C)cc1` [Compound 125] it is 1.6 nM.

The same assay, now with this note: 10% FBS, 24 hours, Table 3 cereblon centric PROTACs, read-out: ER-α Luciferase IC50.
With `O=C1CCC(N2Cc3cc(NCCCOCCCOCCCCOc4ccc(Oc5c(-c6ccc(Br)cc6)sc6cc(O)ccc56)cc4)ccc3C2=O)C(=O)N1` (centres unmarked) [Compound 173], the IC50 was 8 nM.
On to `O=C1CCC(N2C(=O)c3ccc(N4CCC(CN5CCC(Oc6ccc(Oc7c(-c8ccc(C(F)(F)F)cc8)sc8cc(O)ccc78)cc6)CC5)CC4)cc3C2=O)C(=O)N1` (centres unmarked) [Compound 188], for which the concentration for half-maximal inhibition (IC50) was 8.7 nM.
Still for that read-out and setting: the figure for `O=C1CCC(N2C(=O)c3ccc(N4CCN(CCC5CN(CCOc6ccc(Oc7c(-c8ccc(Br)cc8)sc8cc(O)ccc78)cc6)C5)CC4)cc3C2=O)C(=O)N1` (centres unmarked) [Compound 186] is > 300 nM; for `O=C1CCC(N2C(=O)c3ccc(N4CCN(CCCCc5ccc(Oc6c(-c7ccc(Br)cc7)sc7cc(O)ccc67)cc5)CC4)cc3C2=O)C(=O)N1` (centres unmarked) [Compound 211] it is 31.6 nM; for `O=C1CCC(N2C(=O)c3ccc(NCCCOCCCOCCOc4ccc(Oc5c(-c6ccc(Br)cc6)sc6cc(O)ccc56)cc4)cc3C2=O)C(=O)N1` (centres unmarked) [Compound 172] it is 15.7 nM.

In general, IC50 refers to the concentration at which inhibition is half-maximal.
